Assay results taken from patent US4937373A, “Substituted naphthalene carboxylic acids” (Hoffmann-La Roche Inc., priority 1988, dated 1990).

Columns and labels:
[1] = test system: cyclooxygenase (CO) pathway, PGE2 formation in rat peritoneal macrophages; assay: Rat peritoneal macrophage assay, in vitro: PGE2 formation (CO pathway); assay type: cell-based; conditions: stimulated with calcium ionophore A 23187 (5×10^-7 M), PGE2 by radioimmunoassay
Description: (§1) RAT PERITONEAL MACROPHAGE ASSAY, IN VITRO
(§2) The rat peritoneal macrophage assay measures the ability of a test compound to influence the release of arachidonic acid (AA) from phospholipid stores in the plasma membrane and the subsequent metabolism of AA by the Δ^5 -lipoxygenase (5-LO) and cyclooxygenase (CO) pathways to the final products excreted by the cells: leukotriene B4 (LTB4, from the 5-LO pathway) and prostaglandin E2 (PGE2, from the CO pathway).
(§3) Macrophages were obtained form rats by peritoneal lavaqe with phosphate buffered saline minus Ca^+2 and Mg^+2 (PBS). Cells were washed 3 times with PBS and resuspended in Delbecco's Modified Eagle medium (Gibco Laboratories) containing L-glutamine and D-glucose and supplemented with 10% fetal calf serum. Cells were counted on a Coulter ZBA cell counter and then resuspended to a concentration of 4×10^6 cells/mL. Three mL of the cell suspension were added to plastic culture dishes (3 cm), and then the cells were allowed to adhere for 90 minutes at 37° C. Dishes were washed 3 times with PBS to remove nonadherent cells. ^14 C-AA (ca. […]) were added to the cells (1 μCi/dish) and allowed to incorporate for 90 minutes. Unincorporated ^14 C-AA was removed and the cell layer was again washed 3 times with PBS. Test compounds were dissolved in DMSO and diluted in phosphate-buffered Hank's balanced salt solution to appropriate concentrations. Cells were incubated with test compounds or the solution used to dissolve the test compounds (control) for 30 minutes at 37° C. and were then stimulated with calcium ionophore A 23187 (5×10^-7 M) for 20 minutes. The extracellular fluid was removed and ^14 C radioactivity released into this fluid from AA metabolism was measured by liquid scintillation spectroscopy. The amounts of LTB4 and PGE2, were measured in the extracellular fluid by radioimmunoassay with specific antisera. The effect of a test compound or standard was calculated as a percent inhibition of the maximum effect produced in the presence of A 23187 and expressed as an inhibitory concentration 50% IC50).
(§4) This assay measures inhibition by the test compounds of the 5-LO and the CO pathways of AA metabolism and this inhibition is expressed as an IC50 for LTB4 and PGE2 formation respectively.

[2] = test system: Δ^5 -lipoxygenase (5-LO) pathway, LTB4 formation in rat peritoneal macrophages; assay: Rat peritoneal macrophage assay, in vitro: LTB4 formation (5-LO pathway); assay type: cell-based; conditions: stimulated with calcium ionophore A 23187 (5×10^-7 M), LTB4 by radioimmunoassay
Description: as §1, §2, §3, §4

[3] = test system: Rat Acetic Acid Colitis Model; assay: Acetic acid-induced colitis in rats, in vivo (myeloperoxidase accumulation); set-up: species or system rat (Sprague-Dawley)
Description: ACETIC ACID-INDUCED COLITIS IN RATS, IN VIVO
The rat acetic acid induced colitis bioassay has been described by J. E. Krawisz, et al. in Amer. J. Proc. Gastro. Col. Rec. Surg. 31: 11-18 (1980), and by P. Sharon and W. F. Stenson in Gastroenterology 88: 55-63 (1985) and 86: 453-460 (1984). Acetic acid-induced colitis is characterized by the movement of inflammatory cells into the colon, with the number of such cells in the mucosa being measured by the activity of myeloperoxidase, a marker enzyme for these cells. Positive desirable activity is indicated by a reduction in the high levels of myeloperoxidase caused by acetic acid. Male rats (Sprague-Dawley), weighing 150 to 300g, were pretreated twice daily for two days with either the vehicle (water, or dimethylsulfoxide) or the test inhibitor compound suspended in water or dissolved in dimethylsulfoxide and orally administered. On the third day, the animals were dosed the same as on the previous two days, anesthetized with metofane, and 2 ml of 2.5% acetic acid was injected by syringe into the colonic lumen, followed immediately by 3 ml of air and a rinse consisting of 3 ml of phosphate-buffered saline (the acetic acid is present in the lumen for a sufficient period to cause inflammation without producing severe necrosis or irreversible damage). The animals were administered a second dose of the test compound in the same amount about 16 hours later. 24 hours after the acetic acid treatment, the animals were sacrificed, the colonic mucosa was surgically removed and homogenized in an aqueous buffer at pH 6 with a Tissumizer or similar device and myeloperoxidase was measured in the homogenate using o-phenylenediamine as a chromagen, as described by A. Voller, D. E. Bidwell and A. Bartlett in The Enzyme Linked Immunosorbent Assay (ELISA), Zoological Soc., London 1979, pages 29-30. Control animals were pretreated with the vehicle and saline in place of acetic acid.

[4] = test system: rat peritoneal macrophages (^14 C-arachidonic acid release); assay: Rat peritoneal macrophage assay, in vitro: ^14 C release from arachidonic acid metabolism; assay type: cell-based; conditions: stimulated with calcium ionophore A 23187 (5×10^-7 M), ^14 C released
Description: as §1, §2, §3, §4

[5] = molecular target: T1, Δ^5 lipoxygenase from rat basophilic leukemia (RBL-1 cells) (Rattus norvegicus, UniProt P12527); assay: In vitro test for Δ^5-lipoxygenase inhibitors; assay type: biochemical; conditions: RBL-1 supernatant enzyme, 6.7 μM [1-^14 C]arachidonic acid, 10 min preincubation; read-out: IC50 value, Δ^5-lipoxygenase inhibition
T1 construct: the resulting supernatant fraction was used as the source of Δ^5 -lipoxygenase; endogenous in cells; host or cells: RBL-1 rat basophilic leukemia cells (supernatant of the homogenate after 49,000 g)
T1 sequence (P12527 1-673): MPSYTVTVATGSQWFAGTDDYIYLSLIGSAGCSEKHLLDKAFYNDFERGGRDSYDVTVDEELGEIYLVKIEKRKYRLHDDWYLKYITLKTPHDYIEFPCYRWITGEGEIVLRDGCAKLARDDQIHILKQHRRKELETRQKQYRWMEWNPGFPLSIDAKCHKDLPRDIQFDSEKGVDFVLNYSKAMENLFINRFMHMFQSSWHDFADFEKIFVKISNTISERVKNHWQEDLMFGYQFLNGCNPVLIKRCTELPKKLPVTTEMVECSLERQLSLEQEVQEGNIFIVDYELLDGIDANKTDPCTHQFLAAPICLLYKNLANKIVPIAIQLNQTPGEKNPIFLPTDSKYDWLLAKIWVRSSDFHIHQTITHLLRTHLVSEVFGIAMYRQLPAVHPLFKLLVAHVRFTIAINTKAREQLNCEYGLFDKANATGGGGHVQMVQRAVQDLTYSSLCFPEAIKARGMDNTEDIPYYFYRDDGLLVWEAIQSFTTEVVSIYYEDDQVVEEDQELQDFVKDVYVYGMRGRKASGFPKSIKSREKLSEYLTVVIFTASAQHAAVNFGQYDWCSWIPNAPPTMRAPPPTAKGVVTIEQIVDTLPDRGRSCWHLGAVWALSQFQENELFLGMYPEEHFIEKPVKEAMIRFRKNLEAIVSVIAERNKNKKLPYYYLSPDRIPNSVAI
Method: IN VITRO TEST FOR Δ^5 -LIPOXYGENASE INHIBITORS
In this procedure a compound is tested for its effect on Δ^5 lipoxygenase from rat basophilic leukemia (RBL-1 cells). The activity of this enzyme was determined by measuring the catalytic conversion of [1-^14 C]arachidonic acid to [1-^14 C-5-hydroperoxy- 6,8,11,14-eicosatetraenoic acid ([1-^14 C]-5-HPETE) which leads to the formation of the 5-hydroxy derivative ([1-^14 C]-5-HETE). The Δ^5 -lipoxygenase was derived from the supernatant fraction of lysed RBL-1 cells using a modification of the method previously described by Jakschik and Lee [Nature 287,51 (1980)]. Briefly, RBL-1 cells were lysed by homogenization in ice-cold buffer (50 mM Tris-HCl buffer. PH 7.2, containing 1 mM EDTA and 14 μM indomethacin). The homogenate was centrifuged at 4° at 49,000 g for 20 minutes and the resulting supernatant fraction was used as the source of Δ^5 -lipoxygenase. […] The ethereal extract containing [1-^14 C]-5-HETE and unreacted substrate was analyzed by silica gel TLC using isooctanemethylethyl ketone-acetic acid (100:9:1) as the developing solvent. […] The effect of an inhibitor on Δ^5 -lipoxygenase activity is determined by preincubating the enzyme for 10 minutes at 30° in the presence or absence of various concentrations of the drug prior to addition of substrate. […]

| Compound | IC50 [1] [nM] | IC50 [2] [nM] | IC50 [4] [nM] | IC50 [5] [nM] | % Inhibition of Myeloperoxidase Accumulation ([3]; 10 mg/kg po) [%] | % Inhibition of Myeloperoxidase Accumulation ([3]; 1 mg/kg po) [%] |
| --- | --- | --- | --- | --- | --- | --- |
| C[C@H](C(=O)O)c1ccc2cc(OCCCCCCc3ccc(O)c(O)c3)ccc2c1 [(S)-6-[6-(3,4-dihydroxyphenyl)hexyloxy]-alpha-methyl-2-naphthaleneacetic acid] | 3000 | 600 | 1000 |  | 13 ± 2 |  |
| O=C(O)c1ccc2cc(OCCCCCCc3cccc(O)c3O)ccc2c1 [6-[6-(2,3-Dihydroxyphenyl)hexyloxy]-2-naphthalenecarboxylic acid] | 9000 | 3000 | 3000 |  |  | 72 ± 8 |
| CC(C(=O)O)c1ccc2cc(OCCCCCCc3cccc(O)c3O)ccc2c1 (racemic) [(rac)-6-[6-(2,3-Dihydroxyphenyl)hexyloxy]-alpha-methyl-2-naphthalene-aceticacid] | 3000 | 600 | 1000 |  | 88 ± 17 |  |
| CCOC(=O)[C@@H](C)c1ccc2cc(OCCCCCCc3cccc(O)c3O)ccc2c1 [(S)-6-[6-(2,3-Dihydroxyphenyl)hexyloxy]-alpha-methyl-2-naphthaleneacetic acid ethyl ester] | 4000 | 600 | 3000 |  | 23 ± 5 |  |

Further compounds by falling IC50 [1], results first:

| IC50 [1] [nM] | IC50 [2] [nM] | IC50 [4] [nM] | IC50 [5] [nM] | Compound | % Inhibition of Myeloperoxidase Accumulation ([3]; 10 mg/kg po) [%] | % Inhibition of Myeloperoxidase Accumulation ([3]; 1 mg/kg po) [%] |
| --- | --- | --- | --- | --- | --- | --- |
| 5000 | 900 | 3000 |  | O=C(O)Cc1ccc2cc(OCCCCCCc3cccc(O)c3O)ccc2c1 [6-[6-(2,3-dihydroxyphenyl)hexyloxy]-2-naphthalene acetic acid] |  | 72 ± 8 |
| 1000 | 200 | 900 | 12 | C[C@H](C(=O)O)c1ccc2cc(OCCCCCCc3cccc(O)c3O)ccc2c1 [(S)-6-[6-(2,3-dihydroxyphenyl)hexyloxy]-alpha-methyl-2-naphthaleneacetic acid] |  | 90 ± 11 |
